Assay results taken from DBAASP.
In brackets after ≈: the same amount, converted by molar mass.

Tests used:
Assay in all cases: ≥ marks a high value that may be exact or a test limit, other limits are often not marked, values filed in µg/mL are converted to µM
[1] = tested on: Bacillus subtilis CGMCC 1.3376
[2] = tested on: Staphylococcus epidermidis CGMCC 1.4260
[3] = tested on: Klebsiella pneumoniae CGMCC 1.1736
[4] = tested on: Pseudomonas aeruginosa CGMCC 1.2421
[5] = tested on: Escherichia coli CGMCC 1.8732
[6] = tested on: Staphylococcus aureus CGMCC 1.8721
[7] = tested on: Saccharomyces cerevisiae SZMC 0644
[8] = tested on: Candida parapsilosis CBS 604
[9] = tested on: Candida albicans ATCC 10231
Candida krusei CBS 573 = tested on: Candida krusei CBS 573
[10] = tested on: Staphylococcus aureus E4049
[11] = tested on: Staphylococcus aureus ATCC 9144
[12] = tested on: Staphylococcus aureus 5118
[13] = tested on: Staphylococcus aureus Q14-0325
[14] = tested on: Salmonella typhimurium SL1344
[15] = tested on: Listeria monocytogenes NCTC 11994
[16] = tested on: Acinetobacter baumannii Q12-0867
[17] = tested on: Pseudomonas aeruginosa Q12-0535
Escherichia coli K-12 = tested on: Escherichia coli K-12
[18] = tested on: Acinetobacter baumannii Q12-0809
[19] = tested on: Pseudomonas aeruginosa Q14-0208
[20] = tested on: Klebsiella pneumoniae Q14-0095
[21] = tested on: Enterococcus faecalis JH-2-2
[22] = tested on: Staphylococcus aureus ATCC 29213
Escherichia coli = tested on: Escherichia coli
[23] = tested on: Staphylococcus aureus NCTC 12493
[24] = tested on: Staphylococcus aureus MRSA-15
[25] = tested on: Staphylococcus aureus RN4220
[26] = tested on: Campylobacter jejuni NCTC 11351
[27] = tested on: Klebsiella pneumoniae ATCC 700603
[28] = tested on: Pseudomonas aeruginosa PAO1
[29] = tested on: Pseudomonas aeruginosa Q14-0890
[30] = tested on: Pseudomonas aeruginosa Q12-0581
[31] = tested on: Staphylococcus aureus Q14-0320
[32] = tested on: Acinetobacter baumannii Q13-0717
[33] = tested on: Klebsiella pneumoniae NCTC 13442
[34] = tested on: Pseudomonas aeruginosa ATCC 27853
Campylobacter jejuni = tested on: Campylobacter jejuni
[35] = tested on: Escherichia coli ATCC 25922
[36] = tested on: Bacillus subtilis KCTC 1998
[37] = tested on: Pseudomonas aeruginosa 4891
[38] = tested on: Staphylococcus aureus CCARM 3518
[39] = tested on: Salmonella typhimurium KCTC 1926
[40] = tested on: Escherichia coli CCARM 1229
[41] = tested on: Listeria monocytogenes KCTC 3710
[42] = tested on: Candida albicans KCTC 7270
[43] = tested on: Staphylococcus aureus CCARM 3090
[44] = tested on: Staphylococcus aureus ATCC 25923
[45] = tested on: Trichosporon beigelii KCTC 7707
[46] = tested on: Pseudomonas aeruginosa 4007
[47] = tested on: Escherichia coli CCARM 1238

Question: Which MIC [1] does the source give for CC[C@H](C)[C@H](NC(=O)[C@H](C)N)C(=O)NCC(=O)N[C@@H](CO)C(=O)N[C@H](C(=O)N[C@@H](CC(C)C)C(=O)NCC(=O)N[C@@H](C)C(=O)N[C@@H](CC(C)C)C(=O)N[C@@H](C)C(=O)N[C@@H](CCCCN)C(=O)NCC(=O)N[C@@H](CC(C)C)C(=O)N1CCC[C@H]1C(=O)N[C@H](C(=O)N[C@@H](CC(C)C)C(=O)N[C@@H](CCCCN)C(=O)N[C@@H](CO)C(=O)N[C@@H](Cc1c[nH]c2ccccc12)C(=O)N[C@H](C(=O)N[C@@H](CCCCN)C(=O)N[C@@H](CC(N)=O)C(=O)N[C@@H](CCCN=C(N)N)C(N)=O)[C@@H](C)CC)[C@@H](C)O)[C@@H](C)CC [AIGSILGALAKGLPTLKSWIKNR] here?
Answer: 6.25 µM (≈ 15 µg/mL)

Question: And the MIC [2]?
Answer: 12.5 µM (≈ 30.1 µg/mL)

Question: And the MIC [3]?
Answer: ≥ 50 µM

Question: And the MIC [4]?
Answer: 25 µM (≈ 60.2 µg/mL)

Question: And the MIC [5]?
Answer: 25 µM (≈ 60.2 µg/mL)

Question: What about the MIC [6] of the same molecule?
Answer: ≥ 50 µM

Question: Which MIC [7] does the source give for NCCCC[C@H](NC(=O)CNC(=O)[C@H](CCCCN)NC(=O)[C@H](CC(N)=O)NC(=O)[C@@H]1CSSC[C@H](N)C(=O)N1)C(=O)N[C@@H](CC(N)=O)C(=O)N[C@@H](CCCCN)C(=O)NCC(=O)N[C@@H](CO)C(=O)N[C@@H](Cc1cnc[nH]1)C(=O)O [CCNKGKNKGSH] here?
Answer: ≥ 42.5 µM

Question: And the MIC [8]?
Answer: ≥ 42.5 µM

Question: What about the MIC [9] of the same molecule?
Answer: 42.5 µM (≈ 49.9 µg/mL)

Question: And the MIC (Candida krusei CBS 573)?
Answer: ≥ 42.5 µM

Question: CSCC[C@H](NC(=O)[C@H](C)NC(=O)[C@H](C)NC(=O)CNC(=O)[C@H](CCCN=C(N)N)NC(=O)[C@H](CC(=O)O)NC(=O)[C@@H](N)CC(=O)O)C(=O)N[C@@H](Cc1ccccc1)C(=O)N[C@@H](C)C(=O)N[C@H](C(=O)N[C@@H](CC(C)C)C(=O)N[C@@H](Cc1ccccc1)C(=O)N[C@@H](CC(N)=O)C(=O)N[C@@H](C)C(=O)N[C@@H](Cc1ccccc1)C(=O)N[C@@H](CO)C(=O)N[C@@H](CO)C(=O)N[C@@H](CC(C)C)C(=O)N[C@@H](CC(C)C)C(=O)N[C@@H](CCC(=O)O)C(=O)O)C(C)C [DDRGAAMFAVLFNAFSSLLE] was tested. Which MIC [10] did it give?
Answer: 7.82 µM (≈ 17 µg/mL)

Question: And the MIC [11]?
Answer: ≥ 280 µM

Question: And the MIC [12]?
Answer: 2.3 µM (≈ 5 µg/mL)

Question: CC[C@H](C)[C@H](NC(=O)[C@H](Cc1ccccc1)NC(=O)[C@H](Cc1ccc(O)cc1)NC(=O)[C@@H](NC(=O)[C@H](CCCCN)NC(=O)[C@H](CC(C)C)NC(=O)[C@@H](NC(=O)[C@H](CCCCN)NC(=O)[C@@H](NC(=O)[C@@H](N)CO)[C@@H](C)CC)[C@@H](C)CC)[C@@H](C)CC)C(=O)N[C@@H](CCC(N)=O)C(=O)NCC(=O)N[C@@H](CCCCN)C(=O)N[C@@H](CCCN=C(N)N)C(=O)N[C@@H](Cc1cnc[nH]1)C(=O)N[C@@H](Cc1c[nH]c2ccccc12)C(=O)N[C@@H](CO)C(=O)N[C@@H](Cc1ccccc1)C(=O)O [SIKILKIYFIQGKRHWSF] was tested. Which MIC [13] did it give?
Answer: 14.1 µM (≈ 32 µg/mL)

Question: What about the MIC [14] of the same molecule?
Answer: ≥ 226 µM

Question: And the MIC [15]?
Answer: ≥ 113 µM

Question: What about the MIC [16] of the same molecule?
Answer: 14.1 µM (≈ 32 µg/mL)

Question: What about the MIC [17] of the same molecule?
Answer: ≥ 56.5 µM

Question: And the MIC (Escherichia coli K-12)?
Answer: ≥ 113 µM

Question: And the MIC [18]?
Answer: ≥ 56.5 µM

Question: And the MIC [19]?
Answer: 28.3 µM (≈ 64 µg/mL)

Question: What about the MIC [20] of the same molecule?
Answer: ≥ 56.5 µM

Question: And the MIC [21]?
Answer: ≥ 113 µM

Question: What about the MIC [22] of the same molecule?
Answer: 14.1 µM (≈ 32 µg/mL)

Question: What about the MIC (Escherichia coli) of the same molecule?
Answer: > 56.5 µM

Question: What about the MIC [23] of the same molecule?
Answer: 14.1 µM (≈ 32 µg/mL)

Question: And the MIC [24]?
Answer: ≥ 110 µM

Question: And the MIC [25]?
Answer: ≥ 113 µM

Question: What about the MIC [26] of the same molecule?
Answer: ≥ 56.5 µM

Question: What about the MIC [27] of the same molecule?
Answer: 56.5 µM (≈ 128 µg/mL)

Question: What about the MIC [28] of the same molecule?
Answer: 226 µM (≈ 512 µg/mL)

Question: And the MIC [29]?
Answer: 7.06 µM (≈ 16 µg/mL)

Question: What about the MIC [30] of the same molecule?
Answer: 14.1 µM (≈ 32 µg/mL)

Question: What about the MIC [31] of the same molecule?
Answer: 28.3 µM (≈ 64 µg/mL)

Question: And the MIC [32]?
Answer: 28.3 µM (≈ 64 µg/mL)

Question: And the MIC [33]?
Answer: ≥ 56.5 µM

Question: What about the MIC [34] of the same molecule?
Answer: > 56.5 µM

Question: And the MIC (Campylobacter jejuni)?
Answer: ≥ 56.5 µM

Question: How did the MIC [35] turn out when CC[C@H](C)[C@H](NC(=O)CNC(=O)[C@H](CCC(N)=O)NC(=O)[C@H](Cc1ccccc1)NC(=O)[C@@H](NC(=O)[C@H](CCCCN)NC(=O)[C@H](CCCCN)NC(=O)[C@H](CC(C)C)NC(=O)[C@H](C)NC(=O)[C@H](CC(N)=O)NC(=O)[C@H](CC(C)C)NC(=O)[C@@H](N)Cc1c[nH]c2ccccc12)C(C)C)C(=O)N[C@@H](Cc1cnc[nH]1)C(=O)N[C@@H](CCC(=O)O)C(=O)N[C@@H](C)C(=O)N[C@H](C(=O)N[C@@H](CCCCN)C(=O)N[C@@H](CC(C)C)C(=O)N[C@H](C(=O)N[C@@H](Cc1c[nH]c2ccccc12)C(=O)N[C@@H](CC(N)=O)C(=O)N[C@@H](Cc1cnc[nH]1)C(=O)N[C@H](C(=O)N[C@@H](CCC(N)=O)C(N)=O)C(C)C)[C@@H](C)CC)[C@@H](C)CC [WLNALKKVFQGIHEAIKLIWNHVQ] was run?
Answer: 2 µM (≈ 5.77 µg/mL)

Question: And the MIC [36]?
Answer: 4 µM (≈ 11.5 µg/mL)

Question: What about the MIC [37] of the same molecule?
Answer: 4 µM (≈ 11.5 µg/mL)

Question: And the MIC [38]?
Answer: 4 µM (≈ 11.5 µg/mL)

Question: And the MIC [39]?
Answer: 2 µM (≈ 5.77 µg/mL)

Question: And the MIC [40]?
Answer: 2 µM (≈ 5.77 µg/mL)

Question: What about the MIC [41] of the same molecule?
Answer: 8 µM (≈ 23.1 µg/mL)

Question: What about the MIC [42] of the same molecule?
Answer: ≥ 32 µM

Question: What about the MIC [43] of the same molecule?
Answer: 4 µM (≈ 11.5 µg/mL)

Question: What about the MIC [44] of the same molecule?
Answer: 4 µM (≈ 11.5 µg/mL)

Question: What about the MIC [45] of the same molecule?
Answer: ≥ 32 µM

Question: What about the MIC [46] of the same molecule?
Answer: 2 µM (≈ 5.77 µg/mL)

Question: What about the MIC [34] of the same molecule?
Answer: 2 µM (≈ 5.77 µg/mL)

Question: And the MIC [47]?
Answer: 2 µM (≈ 5.77 µg/mL)
